Experimental data published in patent US9902986B2, “Enterobactin conjugates and uses thereof” (Massachusetts Institute of Technology, priority 2013, dated 2018).
Entries after “also recorded” stand apart in the source; their conditions may differ.

Tests used:
[1] = system: various E. coli strains; test: Antibacterial activity against a panel of E. coli strains; type: cell-based, Escherichia coli; conditions: 6 strains of E. coli (K-12, B, H9049, 25922, UTI89, CFT073)
Experimental: (§1) Overnight cultures of the bacterial strains were prepared by inoculating 5 mL of LB with the bacterial freezer stocks and the cultures were incubated at 37° C. in a tabletop incubator shaker set at 150 rpm. The overnight culture grew to saturation and was diluted 1:100 into 5 mL of fresh LB medium containing DP (200 μM) and incubated at 37° C. with shaking at 150 rpm until OD600 reached 0.6. The cultures were subsequently diluted to an OD600 value of 0.001 in 50% MHB medium (11.5 g/L) with or without DP (200 μM). No antibiotic marker was included in these cultures. A 90-μL aliquot of the diluted culture was combined with a 10-μL aliquot of a 10× solution of the tested compounds in a 96-well plate, which was wrapped in […] and incubated at 30° C. with shaking at 150 rpm for 19 h. Bacterial growth was determined by measuring OD600 using a BIOTEK SYNERGY HT plate reader. Each well condition was prepared in duplicate, and at least three independent replicates were conducted on different days. The resulting mean OD600 are reported and the error bars are the standard deviation.
Ampicillin and amoxicillin are β-lactam antibiotics that have periplasmic targets in Gram-negative bacteria and inhibit cell wall biosynthesis. The antibacterial activity of Ent-ampicillin and Ent-amoxicillin conjugates 44 and 45 was evaluated in vitro against a panel of Gram-negative and positive-bacteria.
Select Ent-β-lactam conjugates (Ent-Amp and Ent-Amx) and their glucosylated derivatives (MGE-Amp, MGE-Amx, DGE-Amp, and DGE-Amx) were tested against 6 strains of E. coli. Four of them are non-pathogenic strains, namely K-12, B, H9049, and 25922, and the other two are uropathogenic clinical isolates, namely UTI89 and CFT073.

[2] = system: E. coli K-12; test: Antimicrobial activity assay, E. coli K-12; type: cell-based, Escherichia coli; conditions: inhibition attributed to iron deprivation
Experimental: as §1
In an exemplary experiment, antibacterial activities of the conjugates were tested against E. coli K-12 in 50% MHB at 30° C., t=19 h. 2,2′-dipyridyl (DP, 200 μM) was added to provide conditions of iron limitation.

[3] = system: E. coli CFT073; test: Antimicrobial activity assay, E. coli CFT073; type: cell-based, Escherichia coli; conditions: Fe(III)-loaded versus apo conjugates, 50% MHB, 200 μM DP, 30° C., t=19 h
Experimental: as §1
In another exemplary experiment, antibacterial activities of the conjugates were tested against E. coli CFT073 in 50% MHB at 30° C., t=19 h. DP (200 μM) was added to provide conditions of iron limitation.
In another exemplary experiment, antibacterial activities of Fe(III)-loaded or apo Ent-β-lactam conjugates (Ent-Amp and Ent-Amx) and their glucosylated derivatives (MGE-Amp, MGE-Amx, DGE-Amp, and DGE-Amx) against the uropathogenic strain E. coli CFT073 were tested in 50% MHB, 30° C., t=19 h. 2,2′-dipyridyl (DP, 200 μM) was added to provide conditions of iron limitation.

[4] = system: Salmonella enterica serovar Typhimurium (STM) IR715; test: Antibacterial activity assay, Salmonella Typhimurium; type: cell-based; conditions: 50% MHB, 100 μM 2,2′-dipyridyl, 30° C., t=19 h
Experimental: FIGS. 12A and 12B show exemplary antibacterial activities of Ent-Amp, Ent-Amx, MGE-Amp, MGE-Amx, DGE-Amp, and DGE-Amx against Salmonella enterica serovar Typhimurium (STM) IR715 (50% MHB with 100 μM 2,2′-dipyridyl to provide conditions of iron limitation, 30° C., t=19 h). (FIG. 12A) Antibacterial activity of Amp and the Amp-containing conjugates (Ent-Amp, MGE-Amp, and DGE-Amp). […] (FIG. 12B) Antibacterial activity of Amx and the Amx-containing conjugates (Ent-Amx, MGE-Amx, and DGE-Amx).

[5] = system: E. coli CFT073; test: Antimicrobial activity assay in the presence of lipocalin 2; type: cell-based, Escherichia coli; conditions: conjugate 100 nM, lcn2 1 μM, M9 minimal media, 37° C., 24 h
Experimental: The bacterial cultures were grown in modified M9 minimal medium (Blango, M. G.; Ott, E. M.; Erman, A.; Veranic, P.; Mulvey, M. A. Forced Resurgence and Targeting of Intracellular Uropathogenic Escherichia coli Reservoirs. PLoS One 2014, 9, e93327-e93335) (Na2HPO4 6.8 g/L, KH2PO4 3 g/L, NaCl 0.5 g/L, NH4Cl 1 g/L, 0.4% glucose, 2 mM MgSO4, 0.1 mM CaCl2, 0.2% casein amino acids, and 16.5 μg/mL of thiamine) overnight. […] The cultures were serially diluted to an OD600 value of 0.00001 in fresh modified M9 minimal medium. Lipocalin 2 (Lcn2) was diluted into PBS buffer to a concentration of 20 μM upon arrival and frozen at −20° C. until use. Bovine serum albumin (BSA, Sigma-Aldrich) was prepared in PBS buffer to achieve a concentration of 20 μM. […] The bacterial growth was determined by measuring OD600 using the plate reader. […] The resulting mean OD600 was reported, and the error bars were the standard deviation. […] In contrast, Lcn2 had no effect of the antibacterial activity of MGE-Amp, MGE-Amx, DGE-Amp, or DGE-Amx.

[6] = system: E. coli UTI89; test: Competition assay with native siderophores, E. coli UTI89; type: cell-based, Escherichia coli; conditions: conjugate 100 nM, varied Ent, MGE or DGE, 50% MHB, 200 μM DP, 30° C., t=19 h
Experimental: Ent was synthesized following a literature procedure^55 and stored as DMSO stock solution at −20° C. MGE and DGE were prepared from Ent using MceC and IroB as described for MGE-PEG3-N3 and DGE-PEG3-N3.
(§2) In an exemplary experiment, select conjugates (Ent-Amp, MGE-Amp, and DGE-Amp) with select native siderophores (Ent, MGE, and DGE) were tested against the uropathogenic strain E. coli UTI89 in 50% MHB, t=19 h, 30° C. […] The concentration of the conjugates was fixed at 100 nM, and the concentration of the native siderophores was varied. […] These observations indicate that Ent, MGE, Ent-Amp, and MGE-Amp may enter via both FepA and IroN with different efficiency, but DGE and DGE-Amp may only enter via IroN.
as §2, with “In another” for “In an”, “100 nM” for “100 nM,”

[7] = system: E. coli CFT073; test: Competition assay with native siderophores, E. coli CFT073; type: cell-based, Escherichia coli; conditions: conjugate 100 nM, varied Ent, MGE or DGE, 50% MHB, 200 μM DP, 30° C., t=19 h
Experimental: These assays were performed following the general procedure described herein except that varying concentrations of Ent, MGE, or DGE, each of which was unmodified, were mixed with Ent-Amp, Ent-Amx, MGE-Amp, MGE-Amx, DGE-Amp, or DGE-Amx. Ent was synthesized following a literature procedure^55 and stored as DMSO stock solution at −20° C. MGE and DGE were prepared from Ent using MceC and IroB as described for MGE-PEG3-N3 and DGE-PEG3-N3.
(§3) In another exemplary experiment, select conjugates (Ent-Amp, MGE-Amp, and DGE-Amp) with select native siderophores (Ent, MGE, and DGE) were tested against the uropathogenic strain E. coli CFT073 in 50% MHB, t=19 h, 30° C. 2,2′-dipyridyl (DP, 200 μM) was added to provide conditions of iron limitation. The concentration of the conjugates was fixed at 100 nM and the concentration of the native siderophores was varied.
as §3, with “(Ent-Amx, MGE-Amx,” for “(Ent-Amp, MGE-Amp,”, “DGE-Amx)” for “DGE-Amp)”, “DP (200” for “2,2′-dipyridyl (DP, 200”

[8] = system: uropathogenic E. coli and non-pathogenic E. coli; test: Mixed culture assays (summary), uropathogenic and non-pathogenic E. coli; type: cell-based, Escherichia coli; conditions: uropathogenic with non-pathogenic E. coli
Description: No antibiotic marker was included in these cultures.

[9] = system: human colon epithelial T84 cells; test: Cytotoxicity study using MTT; conditions: 24 h, concentrations up to 10 μM
Experimental: Colon epithelial T84 cell line (purchase from ATCC) were grown in DMEM/F12 medium containing penicillin (100 I.U./mL) and streptomycin (100 μg/mL). The cells were passed and plated in 96-well flat-bottom plates ˜16 h before treatment. Each well contained 90 µL of the cell culture at a density of 10^5 cells/mL. Stock solutions of the tested conjugates (e.g., Ent-Amp) were prepared in sterile filtered 10% DMSO/water, and 10 μL of the each solution was added to each well. The plate was incubated at 37° C. and under 5% CO2 for 24 h and 20 μL of MTT (5 mg/mL in sterile PBS) was added to each well. The plate was incubated at 37° C. for another 4 h, and the supernatant was removed from each well. DMSO (100 μL) was added to the wells to afford a purple solution, and the absorbance at 550 nm was recorded by using a plate reader. Blank readings were generated by wells that only contain the growth medium but no cells. The assay was repeated in three independent trials, and the resulting mean and standard errors are reported. […] Ent-Amp, Ent, and Amp were incubated with human colon epithelial T84 cells for 24 h.
In another exemplary experiment, the human colon epithelial T84 cell line was purchased from ATCC and cultured in 1:1 DMEM/F12 medium with 10% fetal bovine serum, 1% penicillin, and streptomycin (v/v, ATCC). The cells were grown to approximately 95% confluency and treated with 3 mL of trypsin-EDTA (Corning). A 12-mL portion of fresh medium was added to the detached cells, and the T84 cell suspension was centrifuged (600 rpm×5 min, 37° C.). The supernatant was discarded, and the cell pellet was resuspended in 6 mL of the fresh culture media. The concentration of cells was quantified by using a manual hemocytometer (VWR International) and adjusted to 1×10^5 cells/mL. A 90-μL aliquot of T84 cells were then added to 96-well plates and incubated at 37° C. and 5% CO2 for 24 h. […] DMSO (100 μL) was added to each well and the absorbance at 550 nm was recorded by using a plate reader. Blank readings were recorded on wells that only contained the medium. […]

SMILES | antibacterial activity against uropathogenic compared to non-pathogenic E. coli [1] | concentrations at which E. coli K-12 was inhibited [2] | effect of preloading Fe(III) on antibacterial activity [3] | antibacterial activity relative to the unmodified antibiotic [4] | effect of lipocalin-2 (lcn2) on antibacterial activity [5] | attenuation of antibacterial activity by native siderophores [6] | attenuation of antibacterial activity by native siderophores [7] | strain-specific growth inhibition in the mixed culture assays [8] | effect on viability of T84 cells (MTT) [9]
CC1(C)SC2C(NC(=O)C(NC(=O)CCCc3cn(CCOCCOCCOCCNC(=O)c4cc(O)c(O)c(C(=O)NC5COC(=O)C(NC(=O)c6cc(C7OC(CO)C(O)C(O)C7O)cc(O)c6O)COC(=O)C(NC(=O)c6cc(C7OC(CO)C(O)C(O)C7O)cc(O)c6O)COC5=O)c4)nn3)c3ccc(O)cc3)C(=O)N2C1C(=O)O (stereo not shown) [DGE-Amx] | greater antibacterial activity against the uropathogenic E. coli compared to non-pathogenic E. coli | micromolar concentrations | no effect | enhanced antibacterial activity relative to unmodified Amx | unaffected; also recorded: no effect; also recorded: not attenuated | attenuated by Ent, MGE, or DGE | attenuated by Ent, MGE, or DGE | specifically inhibited the growth of the uropathogenic E. coli | –
CC1(C)S[C@@H]2[C@H](NC(=O)[C@H](N)c3ccccc3)C(=O)N2[C@H]1C(=O)O [Amp, Ampicillin] | – | – | – | – | – | – | – | – | did not affect the viability of human cells significantly
O=C(N[C@H]1COC(=O)[C@@H](NC(=O)c2cccc([O-])c2[O-])COC(=O)[C@@H](NC(=O)c2cccc([O-])c2[O-])COC1=O)c1cccc([O-])c1[O-].[Fe+3] [Ent with pre-loaded Fe] | – | – | – | – | – | – | – | – | did not exhibit this effect
